The values below come from publication PMC12059914, “Discovery of Novel Allosteric Inhibitor Hits for Insulin-Regulated Aminopeptidase Provides Insights on Enzymatic Mechanism” (ACS Omega, 2025).

Common to all, as to type: biochemical
In test [1] the target is T1, IRAP (insulin-regulated aminopeptidase) (Homo sapiens, UniProt Q9UIQ6).
T1 construct: gene LNPEP; extracellular (luminal) aminopeptidase domain; Rhodopsin 1D4 tag (given as N-terminal); secreted from stably transfected HEK 293S GnTI(-) cells; PDB ids are the docking structures
The experiment in a line: HPLC vasopressin trimming, dose-response.

Test [2] deals with T2, ERAP1 (Homo sapiens, UniProt Q9NZ08).
T2 construct: recombinant; Hi5 insect cells, baculovirus; Ni-NTA purified
The experiment in a line: fluorogenic Leu-AMC hydrolysis, dose-response.

The target in another test is T3, ERAP2 (Homo sapiens, UniProt Q6P179).
T3 construct: recombinant; Hi5 insect cells, baculovirus; Ni-NTA purified
The test is described as follows: fluorogenic Arg-AMC hydrolysis, dose-response.

Test [3] concerns the target T1, IRAP (insulin-regulated aminopeptidase). The test is described as follows: fluorogenic Leu-AMC hydrolysis, dose-response.
Test [4] addresses T2, ERAP1. The test is described as follows: fluorogenic Leu-AMC hydrolysis, dose-response. This is another data set of the same source.
The target in test [5] is T1, IRAP (insulin-regulated aminopeptidase). The experiment in a line: Michaelis-Menten, fluorescence. As to conditions: pH 7.0, 1 nM enzyme, no inhibitor.

T3 sequence (Q6P179 whole entry): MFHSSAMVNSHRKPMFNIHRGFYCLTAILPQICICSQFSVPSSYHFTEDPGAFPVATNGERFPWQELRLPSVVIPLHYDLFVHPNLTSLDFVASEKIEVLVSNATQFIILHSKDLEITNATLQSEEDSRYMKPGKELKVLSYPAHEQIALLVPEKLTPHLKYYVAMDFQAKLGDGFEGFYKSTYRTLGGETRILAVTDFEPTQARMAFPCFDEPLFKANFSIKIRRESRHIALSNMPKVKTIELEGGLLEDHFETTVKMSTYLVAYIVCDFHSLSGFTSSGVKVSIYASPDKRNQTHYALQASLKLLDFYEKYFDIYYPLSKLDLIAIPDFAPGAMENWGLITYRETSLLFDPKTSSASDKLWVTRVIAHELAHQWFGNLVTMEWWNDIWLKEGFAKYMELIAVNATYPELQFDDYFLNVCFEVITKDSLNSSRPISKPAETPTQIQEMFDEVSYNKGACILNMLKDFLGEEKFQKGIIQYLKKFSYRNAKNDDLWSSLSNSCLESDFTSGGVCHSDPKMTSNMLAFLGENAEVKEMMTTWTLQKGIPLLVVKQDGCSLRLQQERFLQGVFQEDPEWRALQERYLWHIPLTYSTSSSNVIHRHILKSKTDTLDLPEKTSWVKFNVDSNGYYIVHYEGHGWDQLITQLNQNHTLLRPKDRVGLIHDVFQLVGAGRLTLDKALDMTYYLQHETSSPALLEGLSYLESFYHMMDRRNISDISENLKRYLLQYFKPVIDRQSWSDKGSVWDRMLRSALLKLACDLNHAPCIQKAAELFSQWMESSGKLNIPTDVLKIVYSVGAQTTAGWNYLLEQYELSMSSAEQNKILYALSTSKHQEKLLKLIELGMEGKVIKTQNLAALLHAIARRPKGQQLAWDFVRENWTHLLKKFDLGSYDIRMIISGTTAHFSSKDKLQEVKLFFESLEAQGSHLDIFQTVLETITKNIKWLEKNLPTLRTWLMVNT
T2 sequence (Q9NZ08 whole entry): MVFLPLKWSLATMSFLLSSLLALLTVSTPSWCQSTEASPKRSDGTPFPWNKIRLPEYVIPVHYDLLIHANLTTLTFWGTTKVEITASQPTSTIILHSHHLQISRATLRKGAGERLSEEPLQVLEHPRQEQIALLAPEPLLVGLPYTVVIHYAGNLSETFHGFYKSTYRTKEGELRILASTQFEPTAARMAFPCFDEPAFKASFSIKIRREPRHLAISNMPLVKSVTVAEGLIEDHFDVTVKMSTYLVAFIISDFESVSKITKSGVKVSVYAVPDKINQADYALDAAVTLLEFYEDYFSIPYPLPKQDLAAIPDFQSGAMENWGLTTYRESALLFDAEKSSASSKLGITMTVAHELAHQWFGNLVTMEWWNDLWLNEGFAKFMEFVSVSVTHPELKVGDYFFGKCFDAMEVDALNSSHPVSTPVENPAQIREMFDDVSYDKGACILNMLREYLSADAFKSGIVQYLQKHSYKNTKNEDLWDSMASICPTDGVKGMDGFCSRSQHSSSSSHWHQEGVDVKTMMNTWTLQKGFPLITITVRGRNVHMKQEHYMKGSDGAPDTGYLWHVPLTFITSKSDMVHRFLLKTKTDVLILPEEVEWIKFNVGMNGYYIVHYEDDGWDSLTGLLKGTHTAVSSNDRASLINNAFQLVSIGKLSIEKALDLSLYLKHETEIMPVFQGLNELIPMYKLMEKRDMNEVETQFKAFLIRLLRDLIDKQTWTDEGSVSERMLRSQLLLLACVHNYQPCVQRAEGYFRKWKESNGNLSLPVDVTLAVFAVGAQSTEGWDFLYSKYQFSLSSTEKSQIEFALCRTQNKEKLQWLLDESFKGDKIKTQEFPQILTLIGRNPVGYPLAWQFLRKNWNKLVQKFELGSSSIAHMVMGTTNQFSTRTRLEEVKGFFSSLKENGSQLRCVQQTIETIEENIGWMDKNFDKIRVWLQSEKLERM
T1 sequence (Q9UIQ6 132-1025 limits assumed): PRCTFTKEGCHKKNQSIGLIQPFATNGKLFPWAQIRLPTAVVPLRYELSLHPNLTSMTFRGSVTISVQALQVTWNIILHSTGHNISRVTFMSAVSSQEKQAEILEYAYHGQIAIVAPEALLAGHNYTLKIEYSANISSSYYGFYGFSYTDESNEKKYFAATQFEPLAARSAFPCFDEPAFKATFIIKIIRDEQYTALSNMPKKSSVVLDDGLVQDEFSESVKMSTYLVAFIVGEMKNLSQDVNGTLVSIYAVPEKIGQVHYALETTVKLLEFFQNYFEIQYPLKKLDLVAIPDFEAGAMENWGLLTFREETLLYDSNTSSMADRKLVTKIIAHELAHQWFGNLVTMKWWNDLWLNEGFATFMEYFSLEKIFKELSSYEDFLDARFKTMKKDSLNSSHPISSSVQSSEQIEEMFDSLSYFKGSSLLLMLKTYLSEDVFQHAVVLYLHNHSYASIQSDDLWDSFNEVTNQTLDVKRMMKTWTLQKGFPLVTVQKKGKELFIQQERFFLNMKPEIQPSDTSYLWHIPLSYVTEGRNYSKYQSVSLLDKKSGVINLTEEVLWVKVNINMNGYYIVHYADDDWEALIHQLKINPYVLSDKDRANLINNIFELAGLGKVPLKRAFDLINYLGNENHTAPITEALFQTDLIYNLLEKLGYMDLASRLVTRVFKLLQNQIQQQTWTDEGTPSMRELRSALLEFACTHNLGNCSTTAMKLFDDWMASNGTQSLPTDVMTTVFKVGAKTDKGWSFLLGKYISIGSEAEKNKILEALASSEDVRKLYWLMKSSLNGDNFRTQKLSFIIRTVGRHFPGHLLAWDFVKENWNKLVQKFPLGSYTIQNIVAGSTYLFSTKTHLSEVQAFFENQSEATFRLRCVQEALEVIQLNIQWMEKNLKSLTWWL

A word on the IC50: it is the concentration that gives 50% inhibition. Low values mean greater potency, high ones weaker potency. The compound `O=C(O)C1(CF)CCN(Cc2cc3c(Br)cc(F)cc3[nH]2)C1` (racemic) [compound 2] came in with an IC50 in test [1] of 280 µM.
Turning to `O=C(O)c1cc(CN2CCCCC2CCCc2ccccc2)[nH]n1` (racemic) [compound 8], the IC50 against ERAP1 [2] is above 300 µM; against ERAP2 it was above 10000 µM; in test [3], 30 µM.
The EC50 is the concentration that produces a half-maximal response. Read a low EC50 as greater potency. As for `NCc1cc(C(=O)NC(Cc2ccccc2Cl)c2ccccc2)n[nH]1` (racemic) [compound 11], the EC50 at ERAP1 [4] is around 450 µM. The IC50 at ERAP2 came out at 1300 µM; in test [3], 125 µM.
Consider `Cc1ccc(CC(C)(CO)NC(=O)c2cc(-c3c[nH]c4ccccc34)[nH]n2)cc1` (racemic) [compound 17], for which the IC50 against ERAP1 [2] is above 300 µM; at ERAP2, 3600 µM; in test [3] it was 208 µM.
As for `Cc1cc(=O)oc2cc(NC(=O)[C@@H](N)CC(C)C)ccc12` [Leu-AMC], the KM entry in test [5] is “Michaelis–Menten analysis of (A, B) Leu-AMC substrate digestion by IRAP”.
